PubChem BioAssay (NCI)
Where “and” joins values, the source holds several entries; their conditions need not be identical. Identical values can stand only once.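 Step 1: Grow cells in 96-well plates. Step 2: Expose to compound for 48 hours at 5 concentrations. Step 3: Interpolate endpoints linearly; if unreached, use highest concentration. TGI: concentration producing complete growth inhibition.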

Experiments:
Assay in all cases: growth of human tumour cells (NCI), 48 h
HL-60(TB) leukemia = system: HL-60(TB) leukemia
HOP-62 NSCLC = system: HOP-62 NSCLC
OVCAR-4 ovarian = system: OVCAR-4 ovarian
OVCAR-5 ovarian = system: OVCAR-5 ovarian
SF-539 CNS = system: SF-539 CNS
SK-MEL-5 melanoma = system: SK-MEL-5 melanoma
SN12C renal = system: SN12C renal
SNB-19 CNS = system: SNB-19 CNS
HCC-2998 colon = system: HCC-2998 colon
RXF 393 renal = system: RXF 393 renal

SMILES | TGI (HL-60(TB) leukemia) [µM] | TGI (HOP-62 NSCLC) [µM] | TGI (OVCAR-4 ovarian) [µM] | TGI (OVCAR-5 ovarian) | TGI (SF-539 CNS) [µM] | TGI (SK-MEL-5 melanoma) [µM] | TGI (SN12C renal) [µM] | TGI (SNB-19 CNS) | TGI (HCC-2998 colon) [µM] | TGI (RXF 393 renal) [µM]
CCCc1c2c3ccccc3nc-2nc2ccccn12 | > 100 | 90.7 | > 100 | 88.1 µM | > 100 | > 100 | > 100 | > 100 µM | – | –
S=C(Nc1ccc(Br)cn1)NC12CC3CC(CC(C3)C1)C2 | – | > 100 | > 100 | 90.7 µM | 33.7 | – | – | 25.9 µM | 83.3 | 37
N#Cc1c(-c2ccc(Cl)cc2)c(C#N)c(=O)n(NS(=O)(=O)c2ccccc2)c1-c1ccccc1 | > 25 | > 25 | > 25 | > 25 µM | > 25 | > 25 | > 25 | > 25 µM | > 25 | > 25
CO[C@H]1O[C@@H]2CO[C@@H](c3ccccc3)O[C@H]2C[C@]12CCC/C=C\CO2 | 54.7 | 44.4 | > 75 | > 75 µM | 29.1 | 44.1 | 29.7 | > 75 µM | 54.5 | 28.3
Cc1cc(=Nc2ccc3c(c2)c(N)cc(C)[n+]3C)nc(N)n1C | – | > 100 | > 100 | > 100 µM | > 100 | > 100 | > 100 | > 100 µM | – | > 100
NNC(=O)c1n[nH]nc1SSc1n[nH]nc1C(=O)NN | > 100 | > 100 | > 100 | > 100 µM | > 100 | > 100 | > 100 | > 100 µM | > 100 | > 100
CC(Cc1ccc(O)c(O)c1)C(C)Cc1ccc(O)c(O)c1 (stereo unspecified) | 10.3 | 34.1 | 29.5 | 50.7 µM | 33.9 | 32.9 | > 51.6 | 50.9 µM | 38.9 | 31.7
Cc1cc2c(-c3ccccc3)cc(=O)[nH]c2cc1N | – | > 100 | > 100 | > 100 µM | > 100 | > 100 | > 100 | > 100 µM | > 100 | > 100
O=[N+]([O-])C1(C2([N+](=O)[O-])CCCC2)CCCC1 | > 100 | – | > 100 | > 100 µM | > 100 | > 100 | > 100 | > 100 µM | > 100 | > 100
C#CCOC(=O)c1ccccc1OC(C)=O | > 100 | > 100 | > 100 | > 100 µM | > 100 | > 100 | > 100 | > 100 µM | – | > 100
CC12ON=C(c3ccccc3)N1C=CN1C(c3ccccc3)=NOC12 (stereo unspecified) | – | > 100 | – | > 100 µM | > 100 | > 100 | – | > 100 µM | > 100 | > 100
CSc1c(C#N)c2n(c3ccccc3[n+]2C)c2ncccc12 | – | > 100 | 91.1 | 84.6 µM | – | 30.5 | 67.5 | > 100 µM | > 100 | 37.2
CCOC(=O)CCC(NC(=O)OCc1ccccc1)C(=O)NC(CCC(=O)OCC)C(=O)NC(CCC(=O)OCC)C(=O)NC(CCC(=O)OCC)C(=O)NC(CCC(=O)OCC)C(=O)OCC (stereo unspecified) | – | > 100 | > 100 | > 100 µM | – | > 100 | > 100 | – | – | > 100
CC1(C)CC(=O)c2c(nc3ccc4ccccc4c3c2-c2ccc(NC(=O)CCCCC(=O)Nc3ccc(-c4c5c(nc6ccc7ccccc7c46)CC(C)(C)CC5=O)cc3)cc2)C1 | > 100 | > 100 | – | > 100 µM | > 100 | > 100 | > 100 | > 100 µM | – | –
S=C1C=C(c2ccccc2)Sc2ccccc2N1 | > 100 | > 100 | > 100 | > 100 µM | – | > 100 | > 100 | > 100 µM | – | > 100
CC(=O)c1cccc(NC2C(N)C(NC(=O)N(C)C)(C(C)O)C(C)(O)C2(O)COC(=O)c2c(C)cccc2O)c1 (stereo unspecified) | < 0.001 | 0.0786 | – | 0.0457 µM and 0.186 µM | < 0.001 | 0.0227 | 0.106 | 0.0992 µM and 0.936 µM | 0.00295 | –
COCN1C(=O)[C@@H]2CCCN2C(=O)c2cc([N+](=O)[O-])ccc21 | – | > 100 | > 100 | > 100 µM | > 100 | > 100 | > 100 | > 100 µM | – | 39.9
CC(C)(C)/C(O)=C\c1nc2cc(C(F)(F)F)ccc2[nH]c1=O | 19.8 | > 100 | > 100 | > 100 µM | – | > 100 | > 100 | > 100 µM | – | > 100
O=C(/C=C/c1ccc(Cl)c(Cl)c1)Oc1ccc(/C=C2\CCCCC2=O)cc1 | > 100 | > 100 | > 100 | > 100 µM | > 100 | > 100 | > 100 | > 100 µM | > 100 | –
CC(=O)c1cn(-c2ccc(Cl)cc2)c(=O)c2c(N)n[nH]c12 | > 100 | > 100 | > 100 | – | – | > 100 | – | > 100 µM | > 100 | > 100
CSCCCCCCCCCCOc1ccc(C=C2C(=C(C#N)C#N)c3ccccc3C2=C(C#N)C#N)cc1 | 4.34 | 32.2 | 41.3 | 30.2 µM | 37.3 | 31.9 | – | – | – | 35.1
CCCCCCCCCN1CCC(=O)C(C(=O)OC)C1 (stereo unspecified) | 10.9 | 31.3 | 12.4 | 29 µM | 36.5 | 33 | 29.5 | – | 33.8 | 32.7
CCOC(=O)c1c(SCCO)n(-c2ccccc2)c(=S)n(-c2ccccc2)c1=O | > 100 | > 100 | > 100 | > 100 µM | – | > 100 | > 100 | > 100 µM | – | –
COc1cc2c(c(OC)c1OC)C(=O)CC2N (stereo unspecified) | > 100 | – | > 100 | > 100 µM | > 100 | > 100 | – | > 100 µM | > 100 | –
